Columns and labels:
[1] = system: Saprolegnia parasitica CBS 223.65; experiment: MIC/MLC broth microdilution in GY broth; format: cell-based
Protocol: (§1) The antifungal activity of compound 1 was evaluated for a wide range of fungal species, covering yeasts and filamentous fungi, including dermatophytes. […] This antimicrobial effect was fungicidal, with minimal lethal concentrations (MLC) being equal to, or one or two-fold higher than the respective MIC. Twenty-three fungal strains were used in this study, including reference strains and clinical isolates of yeasts and filamentous fungi. Yeast strains included reference strains (ATCC—American Type Culture Collection and CECT—Colección Española de Cultivos Tipo) and clinical isolates: C. albicans ATCC 10231, Candida krusei ATCC 6258, C. albicans H37, C. albicans FF172, C. albicans FF176, C. albicans DSY294, C. albicans DSY296, C. glabrata DSY562, C. glabrata DSY565 and Cryptococcus neoformans CECT 1078. […]
Each well was then inoculated with approximately 1 mm^2 of mycelium. […] After 5-7 days of incubation at 24° C., MIC was recorded as the lowest concentration that prevented obvious mycelial growth in comparison to the compound-free controls. […]

E. faecalis B3/101 = experiment: Checkerboard synergy with VAN; format: cell-based, Enterococcus faecalis
Protocol: The combined effect of compound 1 and CTX for E. coli SA/2, VAN for E. faecalis B3/101, COL for E. coli 2252, erythromycin for E. coli ATCC 25922, and OXA for S. aureus 66/1 was evaluated by the checkerboard method. […] The interaction between compound 1 and erythromycin was assessed for E. coli ATCC 25922. Gram-negative bacteria are intrinsically resistant to erythromycin, a macrolide that inhibits protein synthesis, and cannot penetrate the outer membrane of Gram-negative bacteria, which is impermeable to hydrophobic antibiotics. Ascertain ceragenins have been previously described to be able to enhance the efficacy of such antibiotics, this possibility was investigated for compound 1 and a FICI of 0.6 was obtained.

[2] = system: yeasts and filamentous fungi, including dermatophytes; experiment: Antifungal activity, whole strain panel; format: cell-based; conditions: all microorganisms tested (Table 2)
Protocol: as §1
Antifungal activity was evaluated by determining the MIC of compound 1 by the broth microdilution method, according to CLSI guidelines (reference documents M27-A3 for yeasts and M38-A2 for filamentous fungi). […] The minimal lethal concentration (MLC) was determined by spreading 20 μL of culture collected from wells showing no visible growth on SDA plates. The MLC was determined as the lowest concentration showing complete growth inhibition after 48 h at 35 degrees C., 48 h at 25 degrees C. […]

C. albicans ATCC 10231 = experiment: Biofilm formation (crystal violet); format: cell-based, Candida albicans; conditions: 2×MIC to ¼×MIC (128-16 μg/mL), 48 h
Protocol: The effect of compound 1 on biofilm formation of C. albicans ATCC 10231 was evaluated through quantification of total biomass by crystal violet staining. […] A control with appropriate concentration of DMSO, as well as a negative control (RPMI alone), were included. Sterile 96-well flat-bottomed untreated polystyrene microtiter plates were used. After a 48 h incubation at 35° C., the biofilms were stained with 1% (v/v) crystal violet for 5 min. The stain was solubilized with 33% (v/v) acetic acid and the biofilm biomass was quantified by measuring the absorbance of each sample at 570 nm in a microplate reader (Thermo Scientific Multiskan® EX, Thermo Fisher Scientific, Waltham, MA, USA). The background absorbance (RPMI without inoculum) was subtracted, and the data are presented as percentage of control. Three independent assays were performed in triplicate for each experimental condition.

In the case of `C[C@H](CCC(=O)NCCN)[C@H]1CC[C@H]2[C@@H]3CC[C@@H]4C[C@H](O)CC[C@]4(C)[C@H]3C[C@H](O)[C@]12C` [Compound 1, (R)—N-(2-aminoethyl)-4-((3R,5R,8R,9S,10S,12S,13R,14S,17R)-3,12-dihydroxy-10,13-dimethylhexadecahydro-1H-cyclopenta[a]phenanthren-17-yl) pentanamida], the MIC [1] is reported as 32 to 64 µg/mL, the MLC [1] is reported as 32 to 64 µg/mL and the “combined effect with VAN (in words)” value (E. faecalis B3/101) is reported as “No synergistic interactions”. For the same compound, the “spectrum of antifungal activity (in words)” value [2] was “active against all microorganisms tested” and the “biofilm formation (in words)” value (C. albicans ATCC 10231) was “significant inhibition of biofilm formation”.
